Measurements published in patent US8003812B2, “C10 cyclopentyl ester substituted taxanes” (priority 2004, dated 2011).
“And” between values parts separate entries of the source, which are not always exact repeats. Identical values can stand only once. Like-named read-outs stand apart in the source and are kept apart here.

Tests used:
[1] = system: DLD-1 (resistant human colon carcinoma); test: In vitro cytotoxicity, MTT assay, DLD-1; format: cell-based
[2] = system: HT29 (human colon carcinoma) xenograft; settings: for Efficacy Score = 10*(TWd1−TWdn)/TWd1: single dose IV
Source text: Score=10*(TWd1−TWdn)/TWd1, where
TWd1=tumor weight on day 1
TWDn=lowest tumor weight on day 10 or later
Thus the best score for complete regression would be 10.

[3] = system: human pancreatic tumor xenograft Panc-1; settings: for No. of CR / No. of LTTES / No. of PR: 6 mice; for Median TTE: endpoint 1200 mg; for Efficacy Score = 10*(TWd1−TWdn)/TWd1: best score 10; for No. of NTR / No. of TR: mouse, in vivo, po;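 on all read-outs here: Panc-1 fragments grown subcutaneously in athymic nude mice, one oral dose given on Day 1, six mice per group, tumor endpoint 1200 mm^3, control is Group 1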
Experimental: The tumor used for this study was maintained in athymic nude mice. A tumor fragment (1 mm^3) was implanted s.c. into the right flank of each test mouse. Tumors were monitored twice weekly and then daily as their volume approached 200-400 mm^3 with a mean of 250-300 mm^3. On Day 1 of the study, the animals were sorted into treatment groups with tumor sizes of 171.5-320.0 mm^3 and group mean tumor sizes of 212.6-216.0 mm^3. Tumor size, in mm^3, was calculated from the following formula:
[formula] where w=width and l=length in mm of the tumor. Tumor weight was estimated with the assumption that 1 mg is equivalent to 1 mm^3 of tumor volume. […] All treatments were administered orally, once on Day 1 (qd×1). […] In all groups, the dosing volume of 0.6 mL/20 g mouse was scaled to the body weight of each animal. Each animal was euthanized when its neoplasm reached the predetermined endpoint size (1200 mm^3). The time to endpoint (TTE) for each mouse was calculated by the following equation:
[formula] where TTE is expressed in days, endpoint volume is in mm^3, b is the intercept, and m is the slope of the line obtained by linear regression of a log-transformed tumor growth data set. The data set is comprised of the first observation that exceeded the study endpoint volume and the three consecutive observations that immediately preceded the attainment of the endpoint volume. […] Animals classified as TR (treatment-related) deaths or NTRM (non-treatment-related metastasis) deaths are assigned a TTE value equal to the day of death. Animals classified as NTR (non-treatment-related) deaths are excluded from TTE calculations. Treatment efficacy was determined from tumor growth delay (TGD), which is defined as the increase in the median TTE for a treatment group compared to the control group: TGD=T−C, expressed in days, or as a percentage of the median TTE of the control group:
[formula] where: • T=median TTE for a treatment group and • C=median TTE for control Group 1.
Treatment may cause partial regression (PR) or complete regression (CR) of the tumor in an animal. In a PR response, the tumor volume is 50% or less of its Day 1 volume for three consecutive measurements during the course of the study, and equal to or greater than 13.5 mm^3 for one or more of these three measurements. In a CR response, the tumor volume is less than 13.5 mm^3 for three consecutive measurements during the course of the study. An animal with a CR response at the termination of a study is additionally classified as a long-term tumor-free survivor (LTTFS).
With respect to toxicity, the animals were weighed daily on Days 1-5, then twice weekly until the completion of the study. The mice were examined frequently for overt signs of any adverse, drug-related side effects. Acceptable toxicity for the maximum tolerated dose (MTD) of a cancer drug in mice is defined by the NCl as a group mean body-weight (BW) loss of less than 20% during the test, and not more than one toxic death among ten treated animals. The log rank test was employed to analyze the significance of the difference between the TTE values of a drug-treated group and the vehicle-treated control group. The log rank test analyzes the data for all animals except the NTR deaths. The two-tailed statistical analyses were conducted at P=0.05. The group median tumor growth curves show the median tumor volume (MTV) as a function of time. When an animal exited the study due to tumor size or TR death, the final tumor volume recorded for the animal was included with the data used to calculate the median volume at subsequent time points.

Sprague-Dawley rats = test: In vivo toxicity assessment in rats, oral; parameters: species or system rat; key to PTL R (Recovery) score / L/W Dia score / B/M Dia score / BW R (Recovery) score / WBC R (Recovery) score: −5: N; 0: Y
Experimental: Toxicity was assessed in 250-300g Sprague-Dawley rats and three rats were used per dose group. Three dose groups of the test compound, (i.e., 3 mg/kg, 9 mg/kg and 12 mg/kg for intravenous administration; 15 mg/kg, 30 mg/kg and 40 mg/kg) and 1 control group constituted a study. Animals were observed and clinical chemistry data collected at days 4 and 10. Rats were euthanized on day 11 and the nerves were excised and fixed upon euthanization for further examination.
Each rat is scored as described below and a final toxicity score that incorporates all parameters is assigned. A dead rat is assigned a score of zero. Most of the parameters contribute a positive value towards a total possible score of 130. For body weight, white blood cell, and platelet decreases, recovery is considered. […] The total score is divided by 13 to put it on a scale from 0 to 10.

[4] = Group 5: 120 mg/kg IV QD × 1 in 5% E-95% I-20, 6 mice
[5] = Group 6: 60 mg/kg IV QD × 1 in 5% E-95% I-20, 6 mice
[6] = Group 7: 120 mg/kg IV QD × 1 in 5% ET in Saline, 6 mice
[7] = Group 8: 60 mg/kg IV QD × 1 in 5% ET in Saline, 6 mice
[8] = Group 9: 120 mg/kg IV QD × 1 in 5% EC in Saline, 6 mice
[9] = Group 10: 60 mg/kg IV QD × 1 in 5% EC in Saline, 6 mice
[10] = Group 14: 30 mg/kg IV Q4d × 4 in 5% E-95% I-20, 6 mice
[11] = Group 15: 20 mg/kg IV Q4d × 4 in 5% E-95% I-20, 6 mice
[12] = Group 16: 30 mg/kg IV Q4d × 4 in 5% ET in Saline, 6 mice
[13] = Group 17: 20 mg/kg IV Q4d × 4 in 5% ET in Saline, 6 mice
[14] = Group 18: 30 mg/kg IV Q4d × 4 in 5% EC in Saline, 6 mice
[15] = Group 19: 20 mg/kg IV Q4D × 4 in 5% EC in Saline, 6 mice
[16] = Panc-1, Group 2: 120 mg/kg po qd × 1
[17] = Panc-1, Group 2: 120 mg/kg po qd × 1, 120 mg/kg
[18] = Panc-1, Group 3: 60 mg/kg po qd × 1
[19] = Panc-1, Group 3: 60 mg/kg po qd × 1, 60 mg/kg
[20] = oral, High Dose 40 mg/kg, score per rat

CC(=O)OC12COC1CC(O)C1(C)C(=O)C(OC(=O)C3CCCC3)C3=C(C)C(OC(=O)C(O)C(NC(=O)OC(C)C)c4cccs4)CC(O)(C(OC(=O)c4ccccc4)C21)C3(C)C (stereo not drawn) [Compound 9091]
IC50 [1]: 1.5 nM
# Death NTR [2, 4]: 0
# Death TR [2, 4]: 0
MDS to 1.0 g ± SEM (n) ([2]; Group 6: 60 mg/kg IV QD × 1 in 5% E-95% I-20): 51.9 ± 0.0
# Death NTR [2, 5]: 0
# Death TR [2, 5]: 0
# Death NTR [2, 6]: 0
# Death TR [2, 6]: 5
MDS to 1.0 g ± SEM (n) ([2]; Group 8: 60 mg/kg IV QD × 1 in 5% ET in Saline): 51.8±
# Death NTR [2, 7]: 0
# Death TR [2, 7]: 0
# Death NTR [2, 8]: 0
# Death TR [2, 8]: 0
MDS to 1.0 g ± SEM (n) ([2]; Group 10: 60 mg/kg IV QD × 1 in 5% EC in Saline): 46.0±
# Death NTR [2, 9]: 0
# Death TR [2, 9]: 0
# Death NTR [2, 10]: 0
# Death TR [2, 10]: 0
# Death NTR [2, 11]: 0
# Death TR [2, 11]: 0
# Death NTR [2, 12]: 0
# Death TR [2, 12]: 0
# Death NTR [2, 13]: 0
# Death TR [2, 13]: 0
# Death NTR [2, 14]: 0
# Death TR [2, 14]: 0
# Death NTR [2, 15]: 0
# Death TR [2, 15]: 0
Efficacy Score = 10*(TWd1−TWdn)/TWd1 ([2]; Dose 60, best score 10): 8
Efficacy Score = 10*(TWd1−TWdn)/TWd1 ([2]; Dose 120, best score 10): 8.7
T − C [3, 16]: 40.1 days
% TGD [3, 17]: 212%
No. of CR [3, 16]: 3
No. of LTTES [3, 16]: 3
No. of PR [3, 16]: 3
Tumor Burden Median(n), Day 59 (MTV) [3, 17]: 56 mm^3 and 56 (6) mm^3
Median TTE [3, 16]: 59.0 days
T − C [3, 18]: 40.1 days
% TGD [3, 19]: 212%
No. of CR [3, 18]: 1
No. of LTTES [3, 18]: 1
No. of PR [3, 18]: 5
Tumor Burden Median(n), Day 59 (MTV) [3, 19]: 148 mm^3 and 148 (6) mm^3
Median TTE [3, 18]: 59.0 days
survival ([3]; Panc-1, at both the 120 and 60 mg/kg dose, po qd × 1): 100%
regression responses ([3]; Panc-1, at both the 120 and 60 mg/kg dose, po qd × 1, 6 mice per group): six
Efficacy Score = 10*(TWd1−TWdn)/TWd1 ([3]; Panc-1, single dose oral 60 mg/kg): 8.3
Efficacy Score = 10*(TWd1−TWdn)/TWd1 ([3]; Panc-1, single dose oral 120 mg/kg): 9.1
No. of NTR ([3]; 60 mg/kg): 0
No. of TR ([3]; 60 mg/kg): 0
No. of NTR ([3]; 120 mg/kg): 0
No. of TR ([3]; 120 mg/kg): 0
Tox Score, Dose 15 mg (Sprague-Dawley rats; Oral, dose 15 mg, scale 0 to 10): 7.4
Tox Score, Dose 30 mg (Sprague-Dawley rats; Oral, dose 30 mg, scale 0 to 10): 6.7
Tox Score, Dose 40 mg (Sprague-Dawley rats; Oral, dose 40 mg, scale 0 to 10): 4.6
Tox Score, Average (Sprague-Dawley rats; Oral, average of 3 dose groups): 6.2
Tox Score, Weighted Avg (Sprague-Dawley rats; Oral, weighted by dose): 5.8
Rat tox score PO (Sprague-Dawley rats; PO, summary score, scale 0 to 10): 6
toxicity profile in the oral rat studies compared with congener (Sprague-Dawley rats; oral): better toxicity profile
Total Score AVE (Sprague-Dawley rats; oral, High Dose 40 mg/kg, average of 3 rats): 60
Total Score (Sprague-Dawley rats; oral, High Dose 40 mg/kg, per rat, maximum 130, 40 mg/kg): 55 and 65 and 60
Group score = average of 3 rats/13 (Sprague-Dawley rats; oral, High Dose 40 mg/kg, scale 0 to 10): 4.62
ALT score (Sprague-Dawley rats; [20]): 20 (<1.25Xcont)
AST score (Sprague-Dawley rats; [20]): 20 (<1.25Xcont)
B/M Dia score (Sprague-Dawley rats; [20]): 0
BW score (Sprague-Dawley rats; [20]): 0 (≧20%)
